Data published in patent US20080306080A1, “NEUTROPHILIA INHIBITOR” (Nissan Chemical Industries, Ltd., priority 2003, published 2008).

What was measured:
[1] = system: neutrophilia in the rat airway; test: Effect on neutrophilia in the rat airway (LPS inhalation, neutrophil count in bronchoalveolar washings); format: in vivo, Wister rats; conditions: oral 1 mg/kg, 3 mg/kg and 10 mg/kg, 30 min before LPS inhalation; washings about 5 hours after inhalation
Procedure: Male Wister rats weighing from 100 to 200 g were put in a clear plastic inhalation box for small animals (W30×H30×D30 cm), and 30 mL of a lipopolysaccharide solution (LPS E. coli 0.3 mg/mL saline) atomized to an average particle size of 2.0-6.0 μm was administered by inhalation from an ultrasonic nebulizer (TUR-3200, NIHON KOHDEN) for 30 minutes.
The lipopolisaccharide inhalation was preceded, 30 minutes in advance, by oral administration of Compound A suspended in 0.5% methylcellulose (MC) at doses of 1 mg/4 mL/kg, 3 mg/4 mL/kg and 10 mg/4 mL/kg, or by oral administration of 0.5% MC at a dose of 2 mL/kg to a solvent group. […]
About 5 hours after the lipopolisaccharide inhalation, bronchoalveolar washings were collected. […] The total number of leukocytes in the suspension was counted with a multichannel blood cell counter and designated as the total leukocyte count.
Further, after the cell suspension was adjusted to a total leukocyte count of 1×10^6 cells/mL, 100 μL of the suspension was centrifuged at room temperature at 400 rpm for 4 minutes in a cytocentrifuge (Thermo Shandon) and made into smears. The smears were stained with Diff-Quick (International Reagents Co., Ltd.), and monocytes, eosinophils and neutrophils were counted under an inverted microscope (×400) to about 500 cells. […]

[2] = system: airway neutrophilia induced by exposure to tobacco smoke; test: Guinea pig respiratory dysfunction model with airway neutrophilia induced by exposure to tobacco smoke; format: in vivo, Hartley guinea pigs; conditions: oral 10 mg/kg before each tobacco smoke exposure, 3 weeks, measured the day after
Procedure: Hartley guinea pigs weighing from 350 to 450 g were exposed to cigarette smoke for an hour per day, five days per week, for 3 weeks, by using a tobacco smoke exposer and an exposure chamber (Flow-pasttype nose-only inhalation chamber, Muenster).
The tobacco smoke exposure was preceded, 15-45 minutes in advance, by oral administration of the compound suspended in 0.5% methylcellulose (MC) at a dose of 10 mg/2 mL/kg or by oral administration of 0.5% MC at a dose of 2 mL/kg to a solvent group. To the non-treatment group, 0.5% MC was orally administered at a dose of 2 mL/kg, 15-45 minutes before air exposure. From 4 to 6 […] were carried out for each group. The airway resistances and neutrophil counts were measured the day after three weeks of the tobacco smoke exposure. The airway resistances were measured by double chamber plethysmography with a respiratory function tester (Puloms-1, M.I.P.S.) during wakefulness. The neutrophil counts were measured in the same manner as in Test Example 1. The effect of Compound A was evaluated by calculating the suppression ratio (%) in accordance with the following formula.
Suppression ratio=((measured value for the control group−measured value for the normal value)−(measured value for the Compound A group−measured value for the normal group))×100/(measured value for the control group−measured value for the normal value)

Cl.O=c1[nH]nc(OCCCc2ccc(Cl)cc2)c(NCc2cccnc2)c1Br [Compound A, 4-bromo-6-[3-(4-chlorophenyl)propoxy]-5-(3-pyridylmethylamino)-3(2H)-pyridazinone hydrochloride]
antineutrophilia effect in the rat airways (neutrophil counts in bronchoalveolar washings) [1]: had antineutrophilia effect
suppression ratio of increase in airway resistance ([2]; double chamber plethysmography): 100%
suppression ratio of neutrophilia (neutrophil count) [2]: 73%
